Test results taken from ChEMBL document CHEMBL3526124, “Optimized experimental design for the estimation of enzyme kinetic parameters: an experimental evaluation” (Drug Metab Dispos, 2012).

T1: Cytochrome P450 1A2 (Homo sapiens, UniProt P05177)
T1 sequence (P05177 whole entry): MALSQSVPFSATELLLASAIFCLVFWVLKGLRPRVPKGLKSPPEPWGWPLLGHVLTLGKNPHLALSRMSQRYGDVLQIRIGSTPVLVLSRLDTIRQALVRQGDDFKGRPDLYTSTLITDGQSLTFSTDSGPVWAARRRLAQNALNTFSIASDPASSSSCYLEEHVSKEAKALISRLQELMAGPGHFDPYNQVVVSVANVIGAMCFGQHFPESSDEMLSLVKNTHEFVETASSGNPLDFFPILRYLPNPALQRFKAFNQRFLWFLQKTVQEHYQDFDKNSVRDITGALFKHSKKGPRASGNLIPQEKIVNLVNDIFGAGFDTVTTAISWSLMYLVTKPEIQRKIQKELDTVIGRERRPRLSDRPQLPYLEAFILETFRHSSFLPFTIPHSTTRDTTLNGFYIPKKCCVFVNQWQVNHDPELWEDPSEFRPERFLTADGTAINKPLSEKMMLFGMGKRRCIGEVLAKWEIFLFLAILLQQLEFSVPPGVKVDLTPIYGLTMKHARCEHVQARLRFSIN

B1: Cytochrome P450 1A2 (Homo sapiens) (protein)
chain: T1 sequence (P05177 whole entry)
B2: Cytochrome P450 2C19 (Homo sapiens) (protein)
chain: MDPFVVLVLCLSCLLLLSIWRQSSGRGKLPPGPTPLPVIGNILQIDIKDVSKSLTNLSKIYGPVFTLYFGLERMVVLHGYEVVKEALIDLGEEFSGRGHFPLAERANRGFGIVFSNGKRWKEIRRFSLMTLRNFGMGKRSIEDRVQEEARCLVEELRKTKASPCDPTFILGCAPCNVICSIIFQKRFDYKDQQFLNLMEKLNENIRIVSTPWIQICNNFPTIIDYFPGTHNKLLKNLAFMESDILEKVKEHQESMDINNPRDFIDCFLIKMEKEKQNQQSEFTIENLVITAADLLGAGTETTSTTLRYALLLLLKHPEVTAKVQEEIERVIGRNRSPCMQDRGHMPYTDAVVHEVQRYIDLIPTSLPHAVTCDVKFRNYLIPKGTTILTSLTSVLHDNKEFPNPEMFDPRHFLDEGGNFKKSNYFMPFSAGKRICVGEGLARMELFLFLTFILQNFNLKSLIDPKDLDTTPVVNGFASVPPFYQLCFIPV
B3: Cytochrome P450 2D6 (Homo sapiens) (protein)
chain: MGLEALVPLAVIVAIFLLLVDLMHRRQRWAARYPPGPLPLPGLGNLLHVDFQNTPYCFDQLRRRFGDVFSLQLAWTPVVVLNGLAAVREALVTHGEDTADRPPVPITQILGFGPRSQGVFLARYGPAWREQRRFSVSTLRNLGLGKKSLEQWVTEEAACLCAAFANHSGRPFRPNGLLDKAVSNVIASLTCGRRFEYDDPRFLRLLDLAQEGLKEESGFLREVLNAVPVLLHIPALAGKVLRFQKAFLTQLDELLTEHRMTWDPAQPPRDLTEAFLAEMEKAKGNPESSFNDENLRIVVADLFSAGMVTTSTTLAWGLLLMILHPDVQRRVQQEIDDVIGQVRRPEMGDQAHMPYTTAVIHEVQRFGDIVPLGVTHMTSRDIEVQGFRIPKGTTLITNLSSVLKDEAVWEKPFRFHPEHFLDAQGHFVKPEAFLPFSAGRRACLGEPLARMELFLFFTSLLQHFSFSVPTGQPRPSHHGVFAFLVSPSPYELCAVPR

Key:
[1] = Drug metabolism in human liver microsomes by multiple depletion curves method
Liver microsome [2] = test: Drug metabolism in human liver microsomes assessed as intrinsic clearance per mg protein by optimal design approach
Cytochrome P450 2D6 [3] = molecular target: T2, Cytochrome P450 2D6 (Homo sapiens, UniProt P10635); test: Drug metabolism in assessed as human CYP2D6-mediated intrinsic clearance per mg protein; assay type: ADME; details: recombinant enzyme
[4] = Drug metabolism in human liver microsomes by optimal design approach
Liver microsome [5] = test: Drug metabolism in human liver microsomes assessed as intrinsic clearance per mg protein by multiple depletion curves method
[6] = Drug metabolism in assessed as human CYP3A-mediated intrinsic clearance per mg protein; assay type: ADME; details: recombinant enzyme
CYP3A = test: Drug metabolism in assessed as human CYP3A-mediated metabolism; assay type: ADME; details: recombinant enzyme
[7] = Drug metabolism in assessed as human CYP3A-mediated maximum rate of reaction per mg protein; assay type: ADME; details: recombinant enzyme
CYP2D6 = CYP2D6 (Homo sapiens, UniProt P10635); test: Drug metabolism in assessed as human CYP2D6-mediated metabolism; assay type: ADME; details: recombinant enzyme
Cytochrome P450 2D6 [8] = molecular target: T2, Cytochrome P450 2D6; test: Drug metabolism in assessed as human CYP2D6-mediated maximum rate of reaction per mg protein; assay type: ADME; details: recombinant enzyme
CYP2C9 = CYP2C9 (Homo sapiens, UniProt P11712); test: Drug metabolism in assessed as human CYP2C9-mediated metabolism; assay type: ADME; details: recombinant enzyme
Sequence of CYP2C9 (P11712 whole entry): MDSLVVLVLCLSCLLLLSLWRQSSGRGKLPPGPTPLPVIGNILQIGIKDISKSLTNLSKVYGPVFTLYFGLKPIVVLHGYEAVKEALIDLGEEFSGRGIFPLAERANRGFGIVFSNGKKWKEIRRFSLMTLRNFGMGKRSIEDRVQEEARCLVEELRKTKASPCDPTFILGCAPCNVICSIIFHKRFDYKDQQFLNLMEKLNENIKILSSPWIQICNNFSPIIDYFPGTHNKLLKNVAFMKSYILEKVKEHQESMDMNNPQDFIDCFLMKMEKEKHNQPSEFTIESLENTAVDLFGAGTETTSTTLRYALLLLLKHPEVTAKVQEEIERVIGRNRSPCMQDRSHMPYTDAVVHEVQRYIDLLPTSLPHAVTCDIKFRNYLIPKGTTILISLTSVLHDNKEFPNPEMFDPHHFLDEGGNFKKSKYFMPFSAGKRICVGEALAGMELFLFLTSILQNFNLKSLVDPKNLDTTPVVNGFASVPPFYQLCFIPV

Cytochrome P450 2C9 [9] = molecular target: T3, Cytochrome P450 2C9 (Homo sapiens, UniProt P11712); test: Drug metabolism in assessed as human CYP2C9-mediated intrinsic clearance per mg protein; assay type: ADME; details: recombinant enzyme
T3 sequence (P11712 whole entry): as above

Cytochrome P450 2C9 [10] = molecular target: T3, Cytochrome P450 2C9; test: Drug metabolism in assessed as human CYP2C9-mediated maximum rate of reaction per mg protein; assay type: ADME; details: recombinant enzyme
Cytochrome P450 1A2 [11] = molecular target: T1, Cytochrome P450 1A2; test: Drug metabolism in assessed as human CYP1A2-mediated intrinsic clearance per mg protein; details: recombinant enzyme
Cytochrome P450 1A2 [12] = molecular target: T1, Cytochrome P450 1A2; test: Drug metabolism in assessed as human CYP1A2-mediated maximum rate of reaction per mg protein; assay type: ADME; details: recombinant enzyme
not read [13] = substrate: CN(C)CCCN1c2ccccc2CCc2ccccc21; test: not read
not read [14] = substrate: CCc1cccc2cc(C(O)CNC(C)(C)C)oc12; test: not read

Molecule | Km ([1]; microsomes) | CLH (Liver microsome [2]) | Km ([4]; microsomes) | CLH (Liver microsome [5]) | Km ([1]; liver microsomes) | Km ([4]; liver microsomes) | also measured
CCc1cccc2cc(C(O)CNC(C)(C)C)oc12 (stereo not drawn) [BUFURALOL] | 11.7 µM | 32.3 µL/min/g | 12.8 µM | 31 µL/min/g | – | – | clearance (Cytochrome P450 2D6 [3]): 3 µL/min/mg
CCN(CC)Cc1cc(Nc2ccnc3cc(Cl)ccc23)ccc1O [AMODIAQUINE] | 3.33 µM | 224 µL/min/g | 5.17 µM | 829 µL/min/g | – | – | –
Cc1ncc2n1-c1ccc(Cl)cc1C(c1ccccc1F)=NC2 [MIDAZOLAM] | 1.26 µM | 220 µL/min/g | 3.04 µM | 717 µL/min/g | – | – | CL [6]: 159 µL/min/g; Km (CYP3A): 1.2 µM; Vmax [7]: 636 pmol/min
COc1ccc2c(c1)[C@]13CCCC[C@@H]1[C@H](C2)N(C)CC3 [DEXTROMETHORPHAN] | – | 54.2 µL/min/g | – | 84.1 µL/min/g | 7.16 µM | 6.32 µM | Km (CYP2D6): 1.4 µM; Vmax (Cytochrome P450 2D6 [8]): 140 pmol/min
O=C(O)Cc1ccccc1Nc1c(Cl)cccc1Cl [DICLOFENAC] | 11.6 µM | – | 8.55 µM | – | – | – | Km (CYP2C9): 1.7 µM; clearance (Cytochrome P450 2C9 [9]): 130 µL/min/mg; Vmax (Cytochrome P450 2C9 [10]): 710 pmol/min
COc1ccc([C@@H]2Sc3ccccc3N(CCN(C)C)C(=O)[C@@H]2OC(C)=O)cc1 [DILTIAZEM] | – | 75.4 µL/min/g | – | 47.6 µL/min/g | 10 µM | 9.8 µM | –
CCOc1ccc(NC(C)=O)cc1 [PHENACETIN] | – | 50.4 µL/min/g | – | 39.5 µL/min/g | 22.6 µM | 22.6 µM | CL (Cytochrome P450 1A2 [11]): 14.6 µL/min/g; Vmax (Cytochrome P450 1A2 [12]): 322 pmol/min
B1 | – | – | – | – | – | – | Km (not read [13]): 5 µM; Vmax (not read [13]): 0.000117 µmol/min
B2 | – | – | – | – | – | – | Km (not read [13]): 5 µM; Vmax (not read [13]): 0.000117 µmol/min
B3 | – | – | – | – | – | – | Km (not read [14]): 8.2 µM; Vmax (not read [14]): 7e-05 µmol/min
